Patent US7348140B1, “Clinical indications for genotyping polymorphic variants of G-protein coupled receptors” (Acadia Pharmaceuticals, Inc., priority 2001, dated 2008)
Changes are numbered by the printed parent chain. “And” between values parts separate entries of the source, which are not always exact repeats. Equal values may be shown once. Where a name gives a salt, the structure may show the parent alone. Read-outs that look alike come from different tables or passages of the source. Values belong to the molecule of their own block, whether it stands above or below them.

How the values were obtained:
[1] = molecular target: histamine H2 receptor (Arginine 215 / Lysine 231) (Homo sapiens, UniProt P25021); test: R-SAT functional assay, histamine H2 receptor wild type; type: cell-based; details: agonists and inverse agonists; for EC50: read-out: Ave −Log EC50 (converted)
[2] = molecular target: serotonin 7 receptor L421P (Proline 421) (Homo sapiens, UniProt P34969, L421P); test: R-SAT functional assay, serotonin 7 receptor L421P; type: cell-based; details: Table 20; for EC50: read-out: Ave −Log EC50 (converted); for FOLD: shift in functional potency, Proline 421 vs Leucine 421
[3] = molecular target: serotonin 7 receptor (Leucine 421) (Homo sapiens, UniProt P34969); test: R-SAT functional assay, serotonin 7 receptor wild type; type: cell-based; details: Leucine 421 (wild type), inverse agonists, Table 20; for EC50: read-out: Ave −Log EC50 (converted)
[4] = molecular target: serotonin 1E receptor I44T (Threonine 44) (Homo sapiens, UniProt P28566, I44T); test: cell-based
[5] = molecular target: serotonin 1E receptor (Isoleucine 44 / Serine 262) (Homo sapiens, UniProt P28566); test: cell-based
[6] = molecular target: serotonin 1E receptor S262F (Phenylalanine 262) (Homo sapiens, UniProt P28566, S262F); test: cell-based
[7] = molecular target: T1, dopamine D2 receptor V208L (Leucine 208) (Homo sapiens, UniProt P14416, V208L); test: R-SAT functional assay, dopamine D2 receptor V208L; type: cell-based
T1 construct: expressed in transfected cells; host or cells: NIH-3T3

[8] = molecular target: dopamine D2 receptor (Leucine 40 / Valine 208) (Homo sapiens, UniProt P14416); test: R-SAT functional assay, dopamine D2 receptor wild type; type: cell-based
[9] = molecular target: T2, dopamine D2 receptor L40R (Arginine 40) (Homo sapiens, UniProt P14416, L40R); test: R-SAT functional assay, dopamine D2 receptor L40R; type: cell-based
T2 construct: expressed in transfected cells; host or cells: NIH-3T3

[10] = molecular target: T3, alpha 1A/C receptor G43C (Cysteine 43) (Homo sapiens, UniProt P35348, C347R/G43C/Q431E); test: R-SAT functional assay, alpha 1A/C receptor G43C; type: cell-based; details: Table 1
T3 construct: expressed in transfected cells; host or cells: NIH-3T3

[11] = molecular target: T4, alpha 1A/C receptor I200S (Serine 200) (Homo sapiens, UniProt P35348, C347R/I200S/Q431E); test: R-SAT functional assay, alpha 1A/C receptor I200S; type: cell-based; details: Table 2; for EC50: Serine 200 (I200S), read-out: Ave −Log EC50 (converted); for FOLD: shift in functional potency, Serine 200 vs Isoleucine 200
T4 construct: expressed in transfected cells; host or cells: NIH-3T3
T4 sequence (P35348 1-464 I200S/C347R/Q431E): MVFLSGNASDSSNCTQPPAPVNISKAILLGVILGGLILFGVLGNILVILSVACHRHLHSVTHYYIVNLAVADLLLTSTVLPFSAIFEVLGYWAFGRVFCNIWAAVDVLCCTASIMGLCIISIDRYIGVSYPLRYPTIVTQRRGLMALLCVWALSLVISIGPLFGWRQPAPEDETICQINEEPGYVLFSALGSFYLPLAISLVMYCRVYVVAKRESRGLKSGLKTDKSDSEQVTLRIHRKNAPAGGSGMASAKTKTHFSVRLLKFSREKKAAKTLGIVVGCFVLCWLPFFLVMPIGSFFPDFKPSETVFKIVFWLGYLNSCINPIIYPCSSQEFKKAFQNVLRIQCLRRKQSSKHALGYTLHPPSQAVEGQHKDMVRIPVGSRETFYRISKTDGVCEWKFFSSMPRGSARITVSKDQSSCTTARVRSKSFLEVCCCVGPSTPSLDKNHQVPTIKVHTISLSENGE

[12] = molecular target: T5, alpha 1A/C receptor (Glycine 43 / Isoleucine 200) (Homo sapiens, UniProt P35348, C347R/Q431E); test: R-SAT functional assay, alpha 1A/C receptor wild type; type: cell-based; details: read-out: Ave −Log EC50 (converted)
T5 construct: expressed in transfected cells; host or cells: NIH-3T3
T5 sequence (P35348 1-464 C347R/Q431E): T4 sequence (P35348 1-464 I200S/C347R/Q431E) with S200I

[13] = molecular target: serotonin 2B receptor (Arginine 388) (Homo sapiens, UniProt P41595); test: cell-based
[14] = molecular target: serotonin 2B receptor R388W (Tryptophan 388) (Homo sapiens, UniProt P41595, R388W); test: cell-based
[15] = molecular target: T6, thromboxane receptor E94V (Valine 94) (Homo sapiens, UniProt P21731, E94V); test: R-SAT functional assay, thromboxane receptor E94V; type: cell-based; details: shift in functional potency, Valine 94 vs Glutamine 94; Table 27
T6 construct: expressed in transfected cells; host or cells: NIH-3T3

[16] = molecular target: T7, thromboxane receptor V80E (Glutamic Acid 80) (Homo sapiens, UniProt P21731, V80E); test: R-SAT functional assay, thromboxane receptor V80E; type: cell-based; details: shift in functional potency, Glutamic Acid 80 vs Valine 80; Table 26
T7 construct: expressed in transfected cells; host or cells: NIH-3T3

[17] = molecular target: T8, thromboxane receptor V176E (Glutamic Acid 176) (Homo sapiens, UniProt P21731, V176E); test: R-SAT functional assay, thromboxane receptor V176E; type: cell-based; details: shift in functional potency, Glutamic Acid 176 vs Valine 176
T8 construct: expressed in transfected cells; host or cells: NIH-3T3

[18] = molecular target: T9, histamine H2 receptor K231R (Arginine 231) (Homo sapiens, UniProt P25021, K231R); test: R-SAT functional assay, histamine H2 receptor K231R; type: cell-based
T9 construct: expressed in transfected cells; host or cells: NIH-3T3

[19] = molecular target: T10, dopamine D1 receptor S199A (Alanine 199) (Homo sapiens, UniProt P21728, S199A); test: R-SAT functional assay, dopamine D1 receptor S199A; type: cell-based; details: Table 5
T10 construct: expressed in transfected cells; host or cells: NIH-3T3

[20] = molecular target: T11, dopamine D1 receptor P79S (Serine 79) (Homo sapiens, UniProt P21728, P79S); test: R-SAT functional assay, dopamine D1 receptor P79S; type: cell-based; details: Table 4
T11 construct: expressed in transfected cells; host or cells: NIH-3T3

[21] = molecular target: dopamine D1 receptor (Threonine 37 / Proline 79 / Serine 199) (Homo sapiens, UniProt P21728); test: R-SAT functional assay, dopamine D1 receptor wild type; type: cell-based; details: read-out: Ave −Log EC50 (converted)
[22] = molecular target: T12, dopamine D1 receptor T37P (Proline 37) (Homo sapiens, UniProt P21728, T37P); test: R-SAT functional assay, dopamine D1 receptor T37P; type: cell-based; details: Table 3
T12 construct: expressed in transfected cells; host or cells: NIH-3T3

[23] = molecular target: T13, cholecystokinin B receptor L224Q (Glutamine 224) (Homo sapiens, UniProt P32239, E288K/L224Q); test: R-SAT functional assay, cholecystokinin B receptor L224Q; type: cell-based
T13 construct: expressed in transfected cells; host or cells: NIH-3T3

[24] = molecular target: Neuropeptide Y1 receptor, wild type (Histidine 298) (UniProt P25929); test: cell-based or functional assay
[25] = molecular target: Neuropeptide Y1 receptor H298P variant (Proline 298) (UniProt P25929); test: cell-based or functional assay
[26] = Arginine 215 (wild type), Table 10
[27] = Lysine 231 (wild type), Table 11
[28] = Proline 421 (L421P), inverse agonists
[29] = Isoleucine 200 (wild type), Table 2

Molecule: CN(C)CCCSC(=N)N
EC50 [1, 26]: 234 nM
Ave −Log EC50 [1, 27]: 6.63

Molecule: CN1CCC(c2c[nH]c3ccc(O)cc23)CC1.O=C(O)/C=C\C(=O)O [BRL54443, 3-(1-Methylpiperidin-4-yl)-1H-indole-5-ol maleate]
EC50 [4]: 1480 nM
FOLD [4]: 50 fold
Ave −Log EC50 [5]: 7.53
EC50 [5]: 29.5 nM
EC50 [6]: 174 nM
FOLD [6]: 5.9 fold

Molecule: CC(C)C[C@H]1C(=O)N2CCC[C@H]2[C@]2(O)O[C@](NC(=O)[C@@H]3C=C4c5cccc6[nH]c(Br)c(c56)C[C@H]4N(C)C3)(C(C)C)C(=O)N12 [Bromocriptine]
EC50 [7]: 0.295 nM
EC50 ([8]; Ave −Log EC50): 0.447 nM and 1.66 nM
EC50 [9]: 47.9 nM

Molecule: c1ccc(C2CC2)c(OCC2=NCCN2)c1 [Cirazoline]
EC50 ([10]; Cysteine 43 (G43C), read-out: Ave −Log EC50 (converted)): 14.5 nM
FOLD ([10]; shift in functional potency, Cysteine 43 vs Glycine 43): −3.0 fold
EC50 [11]: 47.9 nM
FOLD [11]: 3.1 fold
EC50 ([12]; Glycine 43 (wild type), Table 1): 42.7 nM
EC50 [12, 29]: 15.5 nM

Molecule: OCCN1CCN(CC/C=C2/c3ccccc3Sc3ccc(C(F)(F)F)cc32)CC1 [Cis-flupenthixol]
Ave −Log EC50 [2, 28]: 7.61
FOLD [2]: 2.8 fold
Ave −Log EC50 [3]: 8.05

Molecule: CN1C[C@H](C(=O)N[C@]2(C)O[C@@]3(O)[C@@H]4CCCN4C(=O)[C@H](Cc4ccccc4)N3C2=O)C[C@@H]2c3cccc4[nH]cc(c34)C[C@H]21 [Dihydroergotamine, dihydroergotamine]
EC50 [7]: 0.0513 nM
FOLD [7]: −5.2 fold
EC50 [13]: 0.0933 nM
EC50 ([8]; Ave −Log EC50): 0.0513 nM and 0.269 nM
EC50 [9]: 24.5 nM
FOLD [9]: 479 fold
EC50 [14]: 1.17 nM
FOLD [14]: 2.5 fold

Molecule: CC(CCc1ccc(O)cc1)NCCc1ccc(O)c(O)c1 (stereo not drawn) [Dobutamine]
EC50 [11]: 2140 nM
FOLD [11]: 3.9 fold
EC50 [12, 29]: 550 nM

Molecule: OCCN1CCN(CCCN2c3ccccc3Sc3ccc(C(F)(F)F)cc32)CC1 [Fluphenazine]
EC50 [2, 28]: 38.9 nM
FOLD [2]: 5.8 fold
EC50 [3]: 6.76 nM

Molecule: COc1ccc(C2CNC(=O)C2)cc1OC1CCCC1 (stereo not drawn) [ROLIPRAM]
EC50 [18]: 692 nM
FOLD [18]: 1.6 fold
EC50 [1, 26]: 437 nM
Ave −Log EC50 [1, 27]: 6.36

Molecule: ANTHAMINE
Ave −Log EC50 ([18]; Arginine 231 (K231R), agonists and inverse agonists, Table 11): 7.29
Ave −Log EC50 [1, 26]: 7.81
Ave −Log EC50 [1, 27]: 7.82

Molecule: CCK-4
FOLD [23]: −12.0 fold

Molecule: CCK-8-Sulfated
FOLD [23]: −3.0 fold

Continued, values first:

EC50 [2, 28]: 11.2 nM
FOLD [2]: 27.0 fold
EC50 [3]: 0.417 nM
Molecule: OCCN1CCN([C@@H]2C[C@@H](c3ccc(F)cc3)c3ccc(C(F)(F)F)cc32)CC1 (racemic) [Tefludazine]

FOLD [15]: 3.5 fold
FOLD [16]: 93 fold
FOLD [17]: 13 fold
Molecule: O=C(O)CCC/C=C\C[C@@H]1[C@@H](/C=C/[C@@H](O)COc2ccc(I)cc2)[C@H]2CC[C@@H]1O2 [I-BOP]

EC50 ([7]; Leucine 208 (V208L), Table 7, read-out: Ave −Log EC50 (converted)): 2.14 nM
EC50 ([8]; Leucine 40 (wild type), Table 6, read-out: Ave −Log EC50 (converted)): 3.55 nM
EC50 ([8]; Valine 208 (wild type), Table 7, read-out: Ave −Log EC50 (converted)): 6.92 nM
Molecule: CN1C[C@@H](NS(=O)(=O)N(C)C)C[C@@H]2c3cccc4c3c(cn4C)C[C@H]21 [Mesulergine]

EC50 ([13]; Arginine 388 (wild type), Table 19, read-out: Ave −Log EC50 (converted)): 39.8 nM
Molecule: CNCCC=C1c2ccccc2CCc2ccccc21 [Nortryptiline]

EC50 ([19]; Alanine 199 (S199A), read-out: Ave −Log EC50 (converted)): 955 nM
FOLD ([19]; shift in functional potency, Alanine 199 vs Serine 199): 11 fold
EC50 ([20]; Serine 79 (P79S), read-out: Ave −Log EC50 (converted)): 4570 nM
FOLD ([20]; shift in functional potency, Serine 79 vs Proline 79): 132 fold
EC50 ([21]; Proline 79 (wild type), Table 4): 34.7 nM
EC50 ([21]; Serine 199 (wild type), Table 5): 91.2 nM
EC50 ([21]; Threonine 37 (wild type), Table 3): 91.2 nM
EC50 ([22]; Proline 37 (T37P), read-out: Ave −Log EC50 (converted)): 955 nM
FOLD ([22]; shift in functional potency, Proline 37 vs Threonine 37): 11 fold
Molecule: CN1CCc2c(cc(O)c(O)c2Cl)C(c2ccccc2)C1 (stereo not drawn) [SKF82957, R(+)-6-Chloro-7,8-dihydroxy-3-methyl-1-phenyl-2,3,4,5-tetrahydro-1H-3-benzazapine hydrobromide]

EC50 [2, 28]: 21.9 nM
FOLD [2]: 3.2 fold
EC50 [3]: 6.92 nM
Molecule: CN1CCN(CC/C=C2/c3ccccc3Sc3ccc(S(=O)(=O)N(C)C)cc32)CC1 [Thiothixene]

FOLD [15]: 6.0 fold
FOLD [16]: 63 fold
FOLD [17]: 5 fold
Molecule: CCCCC[C@H](O)/C=C/[C@@H]1[C@@H](C/C=C\CCCC(=O)O)[C@H]2CO[C@@H]1C2 [U46619]

Ave -Log EC50, R-SAT functional potency [24]: 7.5 -log EC50
Molecule: Leu/Pro NPY (from UniProt P01303 29-97) (peptide)

Ave -Log EC50, R-SAT functional potency [24]: 9.94 -log EC50
Ave -Log EC50, R-SAT functional potency [25]: 6.91 -log EC50
FOLD (shift in functional potency against wild type) [25]: 1070 fold
Molecule: PEPTIDE YY (HUMAN) (from UniProt P10082 29-64)
